For one assay, the system named is HCC70. In words: Inhibition of cell proliferation of human HCC70 cells incubated for 72 hrs by CyQUANT assay. The note with it: HCC70, 72 h. In kind it is functional, cell-based.
A further assay has as its system A673. In words: Inhibition of cell proliferation of human A673 cells incubated for 72 hrs by CyQUANT assay. Format: functional, cell-based. The note with it: A673, 72 h.

These results are taken from ChEMBL document CHEMBL4742388, “Inhibitors of cyclin-dependent kinase 7 (cdk7)” (2019).

The term IC50 denotes the concentration needed to halve the response being measured. Read a high IC50 as weaker potency in that assay.

In the assay on HCC70, `CN1CCC[C@H](Nc2ncc(C(F)(F)F)c(-c3c[nH]c4cc(S(=O)(=O)N5CCC(C)(O)C5)ccc34)n2)C1` (stereo partly specified) returned a half-inhibitory concentration (IC50) of 1000 nM.
`N#Cc1ccc2c(-c3nc(N[C@H]4CCCNC4)ncc3Cl)c[nH]c2c1`: the figures for the IC50 in the assay with A673 and with HCC70 were less than 20 nM and less than 100 nM, respectively.
Regarding `FC(F)(F)c1cnc(N[C@H]2CCCNC2)nc1-c1c[nH]c2cnc(Cl)cc12`, the IC50 is 20 nM in the assay on A673 and 100 nM with HCC70.
For `Fc1cccc2c(-c3nc(N[C@H]4CCCNC4)ncc3Cl)c[nH]c12` the same measures were less than 20 nM and 100 nM.
For `Cc1[nH]ncc1-c1cccc2c(-c3nc(N[C@@H]4CCCNC4)ncc3C(F)(F)F)c[nH]c12` the same measures were less than 20 nM and 1000 nM.
On to `N#C[C@@H]1CCN(C(=O)c2ccc3c(-c4nc(N[C@H]5CCCNC5)ncc4C(F)(F)F)c[nH]c3c2)C1`, for which the 50% inhibitory concentration (IC50) worked out at 20 nM with A673 and 100 nM in the assay on HCC70.
On to `Fc1cnc2[nH]cc(-c3nc(N[C@H]4CCCNC4)ncc3C(F)(F)F)c2c1`, for which the 50% inhibitory concentration (IC50) in the assay on A673 is less than 20 nM; with HCC70 it was less than 100 nM.
With `Cc1cccc2c(-c3nc(N[C@H]4CCCNC4)ncc3Cl)c[nH]c12`, the IC50 was less than 20 nM in the assay with A673 and less than 100 nM in the assay with HCC70.
In turn, `FC(F)(F)c1cnc(N[C@H]2CCCNC2)nc1-c1c[nH]c2cc(-c3cccc(Oc4ccccc4)c3)ccc12` registered an IC50 with HCC70 of 1000 nM.
Take `CS(=O)(=O)c1cccc2c(-c3nc(N[C@H]4CCCNC4)ncc3C(F)(F)F)c[nH]c12`: the IC50 was less than 20 nM in the assay with A673 and less than 100 nM with HCC70.
With `CC(C)c1cnc(N[C@H]2CCCNC2)nc1-c1c[nH]c2ccccc12`, the IC50 in the assay on A673 stood at 200 nM; in the assay with HCC70, 1000 nM.
On to `Clc1cnc(N[C@H]2CCCNC2)nc1-c1c[nH]c2ncccc12`, for which the results for the half-maximal inhibitory concentration (IC50) in the assay on A673 and in the assay on HCC70 were 20 nM and less than 100 nM, respectively.
For `Clc1cnc(N[C@H]2CCCNC2)nc1-c1cnn2ccccc12` the same measures were 20 nM and 100 nM.
For `N#Cc1ccc2c(-c3nc(N[C@@H]4CCCNC4)ncc3C(F)(F)F)c[nH]c2c1-c1ccnnc1`, the IC50 in the assay with A673 is less than 20 nM; with HCC70, less than 100 nM.
Consider `CNC(=O)c1cccc2c(-c3nc(N[C@H]4CCCNC4)ncc3C(F)(F)F)c[nH]c12`, for which the values for the IC50 in the assay with A673 and with HCC70 were 20 nM and 100 nM, respectively.
For the molecule `Fc1ccc2[nH]cc(-c3nc(N[C@H]4CCCNC4)ncc3Cl)c2c1`, the values for the 50% inhibitory concentration (IC50) with A673 and in the assay with HCC70 were 20 nM and 100 nM, respectively.
For `C[C@H]1CCNC[C@@H]1Nc1ncc(C(F)(F)F)c(-c2c[nH]c3ccccc23)n1`, inhibition with HCC70 was half-maximal at 1000 nM (IC50).
Same read-out and setting: in the case of `O=C(c1ccc2c(-c3nc(N[C@H]4CCCNC4)ncc3C(F)(F)F)c[nH]c2c1)N1CC[C@](O)(C(F)(F)F)C1` (single isomer, unassigned) it was 1000 nM.
In the assay with HCC70, `CC1CCNCC1Nc1ncc(C(F)(F)F)c(-c2c[nH]c3ccccc23)n1` (single isomer, unassigned) yielded an IC50 of 100 nM.
For the molecule `CC1(O)CCN(C(=O)c2ccc3c(-c4nc(N[C@H]5CCCNC5)ncc4C(F)(F)F)c[nH]c3c2)C1` (single isomer, unassigned), the values for the IC50 in the assay on A673 and with HCC70 were 200 nM and 100 nM, respectively.
`CC[C@@]1(O)CCN(C(=O)c2ccc3c(-c4nc(N[C@H]5CCCNC5)ncc4C(F)(F)F)c[nH]c3c2)C1` (single isomer, unassigned) returned an IC50 in the assay with HCC70 of 1000 nM.
On to `N#Cc1ccc2c(-c3nc(N[C@@H]4CCC5(CCC5)NC4)ncc3C(F)(F)F)c[nH]c2c1` (single isomer, unassigned), for which, in the assay on HCC70, the IC50 worked out at 100 nM.
As for `COC1CCN(C(=O)c2ccc3c(-c4nc(N[C@H]5CCCNC5)ncc4C(F)(F)F)c[nH]c3c2)C1` (single isomer, unassigned), half-maximal inhibition in the assay on HCC70 (IC50) required 100 nM.
`N#Cc1ccc2c(-c3nc(N[C@H]4CCC5(CCC5)NC4)ncc3C(F)(F)F)c[nH]c2c1` (single isomer, unassigned) gave an IC50 in the assay on HCC70 of 1000 nM.
As for `O=C(c1ccc2c(-c3nc(N[C@H]4CCCNC4)ncc3C(F)(F)F)c[nH]c2c1)N1CC[C@@](O)(C(F)(F)F)C1` (single isomer, unassigned), the IC50 with HCC70 was found to be 100 nM.
`CC[C@]1(O)CCN(C(=O)c2ccc3c(-c4nc(N[C@H]5CCCNC5)ncc4C(F)(F)F)c[nH]c3c2)C1` (single isomer, unassigned): in the assay with HCC70, the IC50 is 100 nM.
